Data from US20040248913A1, “(Pyridinyl and pyrimidyl) trienoic acid derivatives as retinoid x receptor modulators” (priority 2001, published 2004).

How the values were obtained:
RXRα homodimer = target: T1, RXRα homodimer (Homo sapiens, UniProt P19793); test: RXR homodimer co-transfection assay in CV-1 cells (CRBPIITKLUC reporter); format: cell-based; conditions: for Agonist Efficacy (%): mean of n > 2; for Antagonist Efficacy (%) / IC50: RXRα homodimer; for Antagonist Efficacy (%): % of maximal inhibition in presence of fixed concentration (3.2×10^−8 M) of known RXR agonist; for Activity in the context of RXR homodimers (in words): summary of Table 1; for IC50: in presence of known RXR agonist, read-out: Antagonist IC50
T1 sequence (P19793 1-462): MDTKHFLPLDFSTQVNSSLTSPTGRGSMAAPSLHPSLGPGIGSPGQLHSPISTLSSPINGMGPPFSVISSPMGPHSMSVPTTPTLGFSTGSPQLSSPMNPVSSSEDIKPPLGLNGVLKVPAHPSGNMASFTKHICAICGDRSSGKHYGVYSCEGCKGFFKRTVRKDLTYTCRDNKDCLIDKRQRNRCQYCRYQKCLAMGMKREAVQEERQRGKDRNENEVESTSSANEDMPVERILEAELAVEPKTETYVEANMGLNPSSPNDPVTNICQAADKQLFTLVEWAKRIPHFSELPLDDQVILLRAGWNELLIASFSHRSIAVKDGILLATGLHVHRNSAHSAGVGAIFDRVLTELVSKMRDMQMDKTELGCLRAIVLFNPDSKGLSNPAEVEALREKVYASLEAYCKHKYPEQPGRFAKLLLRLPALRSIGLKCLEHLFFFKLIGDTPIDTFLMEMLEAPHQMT
From the text: This assay is described in further detail in U.S. Pat. Nos. 4,981,784 and 5,071,773, the disclosures of which are incorporated herein by reference.
The co-transfection assay provides a method for identifying functional agonists which mimic, or antagonists which inhibit, the effect of native hormones, and quantifying their activity for responsive IR proteins. In this regard, the co-transfection assay mimics an in vivo system in the laboratory. Importantly, activity in the co-transfection assay correlates very well with known in vivo activity, such that the co-transfection assay functions as a qualitative and quantitative predictor of a tested compounds in vivo pharmacology. See, e.g., T. Berger et al. 41 J. Steroid Biochem. Molec. Biol. 773 (1992), the disclosure of which is herein incorporated by reference.
(§1) In the co-transfection assay, cloned cDNA for one or more IRs (e.g., human RARα, RXRα, or PPARγ), alone or in combination (i.e. for heterodimer assays) under the control of a constitutive promoter (e.g., the SV 40, RSV or CMV promoter) is introduced by transfection (a procedure to introduce exogenous genes into cells) into a background cell substantially devoid of endogenous IRs. These introduced gene(s) direct the recipient cells to make the IR protein(s) of interest. A further gene is also introduced (co-transfected) into the same cells in conjunction with the IR gene(s). This further gene, comprising the cDNA for a reporter protein, such as firefly luciferase (LUC), controlled by an appropriate hormone responsive promoter containing a hormone response element (HRE). This reporter plasmid functions as a reporter for the transcriptional-modulating activity of the target IR(s). Thus, the reporter acts as a surrogate for the products (mRNA then protein) normally expressed by a gene under control of the target receptor(s) and their native hormone(s).
Exposing the transfected cells to an agonist ligand compound increases reporter activity in the transfected cells. This activity can be conveniently measured, e.g., by increasing luciferase production and enzymatic activity, which reflects compound-dependent, IR-mediated increases in reporter transcription. To detect antagonists, the co-transfection assay is carried out in the presence of a constant concentration of an known agonist to the target IR (e.g., 4-[(3,5,5,8,8-Pentamethyl-5,6,7,8-tetrahydro-2-naphthyl)ethenyl]benzoic acid (Ligand Pharmaceuticals, Inc.) for RXRα) known to induce a defined reporter signal. Increasing concentrations of an antagonist will decrease the reporter signal (e.g., luciferase production). The co-transfection assay is therefore useful to detect both agonists and antagonists of specific IRs. Furthermore, it determines not only whether a compound interacts with a particular IR, but whether this interaction mimics (agonizes) or blocks (antagonizes) the effects of native or synthetic regulatory molecules on target gene expression, as well as the specificity and strength of this interaction.
The receptor expression plsmid was cotransfected along with a reporter plasmid at 50 ng/well, the internal control plasmid pRS-β-Gal at 50 ng/well and filler DNA, pGEM, at 90 ng/well.

RXRα:RAR heterodimer [1] = test: RXR:RAR heterodimer cotransfection assay in CV-1 cells; format: cell-based, human; conditions: for Synergy Efficacy (%): maximal response in presence of 3 nM TTNPB relative to response to TTNPB alone; for Agonist Efficacy (%): maximal response relative to response of ATRA
From the text: as §1
(§2) Compounds of the present invention were also tested for the ability to synergize with an RAR or PPARγ agonist in the context of an RXR heterodimer. […] Efficacy of the compounds of the present invention in the agonist and synergy assays was calculated as the maximum response obtained over the range of the dose response curve relative to the maximum response obtained by the reference agonist. Antagonist efficacy was determined as a function (%) of maximal inhibition.
(§3) RAR suppresses RXR ligand binding and transactivation of typical RXR agonists via allosteric interactions. […] However, when RAR is occupied, typical RXR agonists activate the heterodimer. […] To examine the effects of the compounds of the present invention on the transcriptional properties of the RXR:RAR heterodimer, a heterodimer cotransfection assay as described above was employed.

RXRα:RAR heterodimer [2] = target: T2, RXRα:RAR heterodimer (Homo sapiens, UniProt P19793); test: as above; format: cell-based; conditions: for RXR:RAR antagonist activity (in words): antagonist assay; for Antagonist Efficacy (%): relative to maximal repression (100%) in presence of 10 nM TTNPB
T2 construct: expressed in transfected cells; host or cells: CV-1 cells
T2 sequence (P19793 1-462): T1 sequence (P19793 1-462)
From the text: as §1, §2, §3

[3] = RXRα homodimer cotransfection, CV-1 cells
[4] = not calculated if efficacy <10%

Structure (SMILES) | Agonist Efficacy (%) (RXRα homodimer; [3]) | EC50 (RXRα homodimer; RXRα homodimer cotransfection, CV-1 cells, not calculated if efficacy <10%, read-out: Agonist EC50) | Antagonist Efficacy (%) (RXRα homodimer) | Activity in the context of RXR homodimers (in words) (RXRα homodimer) | RXR:RAR agonist activity in combination with TTNPB (in words) (RXRα:RAR heterodimer [1]) | Synergy Efficacy (%) (RXRα:RAR heterodimer [1]) | Agonist Efficacy (%) (RXRα:RAR heterodimer [1]) | IC50 (RXRα homodimer; [4]) | RXR:RAR antagonist activity (in words) (RXRα:RAR heterodimer [2]) | Antagonist Efficacy (%) (RXRα:RAR heterodimer [2]) | RXR:RAR agonist activity / transactivation alone (in words) (RXRα:RAR heterodimer [1])
CCOc1c(\C(C)=C/C=C/C(C)=C/C(=O)O)cc(C(C)C)nc1C(C)C [Example 3, 7-(2,6-Diisopropyl-3-ethoxy-pyridin-4-yl)-3-methyl-octa-2(E),4(E),6(Z)-trienoic acid] | 51% | 2 nM | 3% | agonist activity | strong agonist activity | 73% | 6% | – | – | – | –
CCCCOc1c(\C(C)=C/C=C/C(C)=C/C(=O)O)cc(C(C)C)nc1C(C)C [Example 1, 7-(3-Butoxy-2,6-diisopropyl-pyridin-4-yl)-3-methyl-octa-2(E),4(E),6(Z)-trienoic Acid] | 1% | – | 93% | highly efficacious and potent antagonist activity with little or no agonists activity | not active | 7% | 1% | 3.5 nM | significant RXR:RAR antagonist activity | 93% | not active
CCCOc1c(\C(C)=C/C=C/C(C)=C/C(=O)O)cc(C(C)C)nc1C(C)C [Example 2, 7-(2,6-Diisopropyl-3-propoxy-pyridin-4-yl)-3-methyl-octa-2(E),4(E),6(Z)-trienoic Acid] | 4% | – | 88% | highly efficacious and potent antagonist activity with little or no agonists activity | not active | 6% | 2% | 4.1 nM | significant RXR:RAR antagonist activity | 88% | not active
C/C(=C/C=C/C(C)=C/C(=O)O)c1cc(C(C)C)nc(C(C)C)c1OCC(F)F [Example 4, 7-[3-(2,2-Difluoro-ethoxy)-2,6-diisopropyl-pyridin-4-yl]-3-methyl-octa-2(E),4(E),6(Z)-trienoic acid] | 9% | – | 76% | highly efficacious and potent antagonist activity with little or no agonists activity | weak to moderate agonist activity | 37% | 9% | 8.7 nM | – | 76% | –
C/C(=C/C=C/C(C)=C/C(=O)O)c1cc(C(C)C)nc(C(C)C)c1OCC(F)(F)F [Example 5, 7-[2,6-Diisopropyl-3-(2,2,2-trifluoro-ethoxy)-pyridin-4-yl]-3-methyl-octa-2(E),4(E),6(Z)-trienoic acid] | 3% | – | 85% | highly efficacious and potent antagonist activity with little or no agonists activity | weak to moderate agonist activity | 18% | 3% | 8 nM | – | 85% | –
